These compounds were tested on peach aphid (Myzus persicae) (assay: Insecticidal test against peach aphid, infested Chinese cabbage leaves sprayed). Details: peach aphid (Myzus persicae) on Chinese cabbage leaves, sprayed with 500 ppm composition unless otherwise stated, mortality assessed after 3 days.
Assay type: in vivo
Procedure, shortened: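 Aphid-infested Chinese cabbage leaves were sprayed with compound at 500 ppm unless otherwise stated, formulated in acetone/ethanol diluted with water containing 0.05% Synperonic NP8. Mortality was assessed after 3 days.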

| Compound | Score (grading of mortality) |
| --- | --- |
| N#CC1(c2cncc(Br)c2)CC2CCC(C1)N2 (centres unmarked) [Compound 203] | A (A indicates 80-100% mortality) |
| CN1C2CCC1CC(C#N)(c1cc(Cl)nc(Cl)n1)C2 (stereo not drawn) [Compound 63, exo-3-(2,6-dichloropyrimid-4-yl)-endo-3-cyano-8-methyl-8-azabicyclo[3.2.1]octane] | C (C indicates less than 40% mortality) |
| N#CC1(c2cncc(Cl)c2)CC2CCC(C1)N2C=CC(=O)C(F)(F)F (stereo not drawn) [Compound 88, exo-3-(5-chloropyrid-3-yl)-endo-3-cyano-8-(3-oxo-4,4,4-trifluorobut-1-en-1-yl)-8-azabicyclo[3.2.1]octane] | A (A indicates 80-100% mortality) |
| N#CC1(c2cncc(Cl)c2)CC2CCC(C1)N2CP(=O)(O)O (stereo not drawn) [Compound 292, exo-3-(5-chloropyrid-3-yl)-endo-3-cyano-8-phosphonomethyl-8-azabicyclo[3.2.1]octane] | A (A indicates 80-100% mortality) |
| Cc1cccc(CN2C3CCC2CC(C#N)(c2cc(F)cc(F)c2)C3)c1 (centres unmarked) [Compound 13] | B (B indicates 40-79% mortality) |
| CN1C2CCC1CC(C#N)(c1cncc(Br)c1)C2 (stereo not drawn) [Compound 68, exo-3-(5-bromopyrid-3-yl)-endo-3-cyano-8-methyl-8-azabicyclo[3.2.1]octane] | A (A indicates 80-100% mortality) |
| N#CC1(c2cncc(Cl)c2)CC2CCC(C1)N2Cc1ccc(C(F)(F)F)cc1C(F)(F)F (centres unmarked) [Compound 100] | A (A indicates 80-100% mortality) |
| COC(=O)CN1C2CCC1CC(C#N)(c1cccnc1)C2 (stereo not drawn) [Compound 51, exo-3-(pyrid-3-yl)-endo-3-cyano-8-(methoxycarbonylmethyl)-8-azabicyclo[3.2.1]octane] | A (A indicates 80-100% mortality) |
| N#CC1(c2cncc(Cl)c2)CC2CCC(C1)N2CC(F)(F)C(F)F (centres unmarked) [Compound 131] | A (A indicates 80-100% mortality) |
| N#CC1(c2cncc(C(F)(F)F)c2)CC2CCC(C1)N2 (centres unmarked) [Compound 184] | A (A indicates 80-100% mortality) |
| N#CC1(c2cncc(Cl)c2)CC2CCC(C1)N2CC=C(F)F (stereo not drawn) [Compound 106, exo-3-(5-chloropyrid-3-yl)-endo-3-cyano-8-(3,3-difluoroprop-2-en-1-yl)-8-azabicyclo[3.2.1]octane] | A (A indicates 80-100% mortality) |
| CN1C2CCC1CC(C#N)(c1cncc(-n3cccc3)c1)C2 (stereo not drawn) [Compound 189, exo-3-(5-(pyrrol-1-yl)pyrid-3-yl)-endo-3-cyano-8-methyl-8-azabicyclo[3.2.1]octane] | A (A indicates 80-100% mortality) |
| N#CC1(c2cncc(Cl)c2)CC2CCC(C1)N2CC(=O)O (centres unmarked) [Compound 107] | A (A indicates 80-100% mortality) |
| N#CC1(c2cc(F)cc(F)c2)CC2CCC(C1)N2c1cccc(Cl)n1 (centres unmarked) [Compound 28] | C (C indicates less than 40% mortality) |
| N#CC1(c2ccccc2)CC2CCC(C1)N2Cc1ccccc1 (centres unmarked) [Compound 8, 3-phenyl-3-cyano-8-benzyl-8-azabicyclo[3.2.1]octane] | A (A indicates 80-100% mortality) |
| N#CC1(c2cncc(Cl)c2)CC2CCC(C1)N2Cc1ccccc1N1C(=O)CCC1=O (centres unmarked) [Compound 264] | A (A indicates 80-100% mortality) |
| COc1cncc(C2(C#N)CC3CCC(C2)N3CC#N)c1 (centres unmarked) [Compound 166] | A (A indicates 80-100% mortality) |
| N#CC1(c2cncc(C(F)(F)F)c2)CC2CCC(C1)N2CC(F)(F)F (centres unmarked) [Compound 199] | A (A indicates 80-100% mortality) |
| Cc1ccccc1CN1C2CCC1CC(C#N)(c1cncc(Cl)c1)C2 (centres unmarked) [Compound 239] | A (A indicates 80-100% mortality) |
| N#CC1(c2cc(F)cc(F)c2)CC2CCC(C1)N2Cc1ccccc1 (centres unmarked) [Compound 10] | A (A indicates 80-100% mortality) |
| N#CC1(c2cncc(Cl)c2)CC2CCC(C1)N2C(=O)C(F)(F)F (centres unmarked) [Compound 96] | A (A indicates 80-100% mortality) |
| N#C[C@@]1(c2cccnc2)C[C@H]2CC[C@@H](C1)N2CCF [Compound 34, exo-3-(pyrid-3-yl)-endo-3-cyano-8-(2-fluoroethyl)-8-azabicyclo[3.2.1]octane] | A (A indicates 80-100% mortality) |
| N#CC1(c2cncc(Cl)c2)CC2CCC(C1)N2 (stereo not drawn) [Compound 70, exo-3-(5-chloropyrid-3-yl)-endo-3-cyano-8-azabicyclo[3.2.1]octane] | A (A indicates 80-100% mortality) |
| C=COC(=O)N1C2CCC1CC(C#N)(c1cccnc1)C2 (stereo not drawn) [Compound 185, exo-3-(Pyrid-3-yl)-endo-3-cyano-8-(vinyloxycarbonyl)-8-azabicyclo[3.2.1]octane] | A (A indicates 80-100% mortality) |
| CN1C2CCC1CC(C#N)(c1cncc(C(C)(C)O)c1)C2 (centres unmarked) [Compound 206] | A (A indicates 80-100% mortality) |
| N#CC1(c2cncc(Cl)c2)CC2CCC(C1)N2CCC(=O)O (stereo not drawn) [Compound 141, exo-3-(5-chloropyrid-3-yl)-endo-3-cyano-8-(2-carboxyethyl)-8-azabicyclo[3.2.1]octane] | A (A indicates 80-100% mortality) |
| N#CC1(c2cncc(Cl)c2)CC2CCC(C1)N2c1ncc(Cl)s1 (stereo not drawn) [Compound 168, exo-3-(5-chloropyrid-3-yl)-endo-3-cyano-8-(5-chlorothiazol-2-yl)-8-azabicyclo[3.2.1]octane] | A (A indicates 80-100% mortality) |

| Compound | Score (grading of mortality) |
| --- | --- |
| N#CC(c1ccccc1)N1C2CCC1CC(C#N)(c1cncc(Cl)c1)C2 (stereo not drawn) [Compound 115, exo-3-(5-chloropyrid-3-yl)-endo-3-cyano-8-(a-cyanobenzyl)-8-azabicyclo[3.2.1]octane] | A (A indicates 80-100% mortality) |
| N#CC1(c2cncc(Cl)c2)CC2CCC(C1)N2Cc1c(F)c(F)c(F)c(F)c1F (stereo not drawn) [Compound 93, exo-3-(5-chloropyrid-3-yl)-endo-3-cyano-8-(pentafluorophenylmethyl)-8-azabicyclo[3.2.1]octane] | A (A indicates 80-100% mortality) |
| CC(C)(C#N)N1C2CCC1CC(C#N)(c1cncc(Cl)c1)C2 (stereo not drawn) [Compound 223, exo-3-(5-chloropyrid-3-yl)-endo-3-cyano-8-(2-cyanoprop-2-yl)-8-azabicyclo[3.2.1]octane] | C (C indicates less than 40% mortality) |
| COC(=O)C(C)N1C2CCC1CC(C#N)(c1cncc(Cl)c1)C2 (single isomer, unassigned) [Compound 211] | A (A indicates 80-100% mortality) |
| CCN1C2CCC1CC(C#N)(c1cccnc1)C2 (centres unmarked) [Compound 38] | A (A indicates 80-100% mortality) |
| CC=COc1cncc(C2(C#N)CC3CCC(C2)N3C)c1 (centres unmarked) [Compound 102] | A (A indicates 80-100% mortality) |
| N#CC1(c2cncc(Cl)c2)CC2CCC(C1)N2Cc1ccc(F)c(F)c1F (centres unmarked) [Compound 271] | A (A indicates 80-100% mortality) |
| CCN1C2CCC1CC(C#N)(c1cncc(Cl)c1)C2 (centres unmarked) [Compound 78] | A (A indicates 80-100% mortality) |
| N#CC1(c2cccnc2)CC2CCC(C1)N2CCO (centres unmarked) [Compound 54] | A (A indicates 80-100% mortality) |
| N#CC1(c2cc(F)cc(F)c2)CC2CCC(C1)N2 (centres unmarked) [Compound 9] | A (A indicates 80-100% mortality) |
| N#CC1(c2cncc(Cl)c2)CC2CCC(C1)N2CCCC(F)(F)F (centres unmarked) [Compound 160] | A (A indicates 80-100% mortality) |
| N#C[C@@]1(c2cncc(Cl)c2)C[C@H]2CC[C@@H](C1)N2CC(F)(F)F [Compound 72, exo-3-(5-chloropyrid-3-yl)-endo-3-cyano-8-(2,2,2-trifluoroethyl)-8-azabicyclo[3.2.1]octane] | A (A indicates 80-100% mortality) |
| COC(=O)C(C)N1C2CCC1CC(C#N)(c1cncc(Cl)c1)C2 (single isomer, unassigned) [Compound 213] | A (A indicates 80-100% mortality) |
| N#CC1(c2cncc(Cl)c2)CC2CCC(C1)N2Cc1cccc(C(F)(F)F)c1 (centres unmarked) [Compound 255] | A (A indicates 80-100% mortality) |
| C#CCN1C2CCC1CC(C#N)(c1cc(F)cc(F)c1)C2 (centres unmarked) [Compound 22] | A (A indicates 80-100% mortality) |
| C=COC(=O)N1C2CCC1CC(C#N)(c1cncc(C(F)(F)F)c1)C2 (centres unmarked) [Compound 183] | A (A indicates 80-100% mortality) |
| Cc1ccc(CN2C3CCC2CC(C#N)(c2cncc(Cl)c2)C3)cc1 (centres unmarked) [Compound 248] | A (A indicates 80-100% mortality) |
| N#CC1(c2cc(F)cc(F)c2)CC2CCC(C1)N2Cc1cc(Cl)cc(Cl)c1 (centres unmarked) [Compound 17] | C (C indicates less than 40% mortality) |
| N#CC1(c2cncc(Cl)c2)CC2CCC(C1)N2Cc1cccc(Oc2ccccc2)c1 (centres unmarked) [Compound 229] | A (A indicates 80-100% mortality) |
| N#CC1(c2cncc(Cl)c2)CC2CCC(C1)N2Cc1c(F)ccc(F)c1F (centres unmarked) [Compound 114] | A (A indicates 80-100% mortality) |
| CC(C)(C)OC(=O)CN1C2CCC1CC(C#N)(c1cccnc1)C2 (centres unmarked) [Compound 39] | C (C indicates less than 40% mortality) |
| COCCN1C2CCC1CC(C#N)(c1cc(F)cc(F)c1)C2 (centres unmarked) [Compound 25] | A (A indicates 80-100% mortality) |
| CC(C)(N1C2CCC1CC(C#N)(c1cncc(Cl)c1)C2)C(F)(F)F (stereo not drawn) [Compound 209, exo-3-(5-chloropyrid-3-yl)-endo-3-cyano-8-(1,1-dimethyl-2,2,2-trifluoroethyl)-8-azabicyclo[3.2.1]octane] | A (A indicates 80-100% mortality) |
| CN1C2CCC1CC(C#N)(c1ncncc1Br)C2 (centres unmarked) [Compound 198] | A (A indicates 80-100% mortality) |
| N#CC1(c2cncc(Br)c2)CC2CCC(C1)N2CC(F)(F)F (centres unmarked) [Compound 143] | A (A indicates 80-100% mortality) |
| N#CC1(c2cc(F)cc(F)c2)CC2CCC(C1)N2Cc1cnc(Cl)c(Cl)c1 (centres unmarked) [Compound 11] | A (A indicates 80-100% mortality) |

— patent US6573275B1, “Bicyclic amines” (Syngenta Limited, priority 1995, dated 2003)
